Results: patent US11382328B2, “Rapid drug discovery methods for pathogen inactivation” (priority 2019, dated 2022)

Test system: E. coli strain W3110
Experiment: Synergy assays: Biolog chemical sensitivity panels with Group IB metal, coefficient of drug interaction (CDI) from relative growth
Assay type: cell-based
Conditions: for CDI (coefficient of drug interaction), copper mixed with biocide: Copper (mM) section; for CDI (coefficient of drug interaction), gold + biocide: Gold (μM)
[1] = Copper (mM), 1st of 3 copper concentrations (head line not shown), biocide concentration 4 of 4, E. coli
[2] = Copper (mM), 2nd of 3 copper concentrations (head line not shown), biocide concentration 4 of 4, E. coli
[3] = Copper (mM), 3rd of 3 copper concentrations (head line not shown), biocide concentration 4 of 4, E. coli
[4] = Silver 0.5 μM, biocide concentration 4 of 4
[5] = Silver 1.0 μM, biocide concentration 4 of 4
[6] = Silver 5.0 μM, biocide concentration 4 of 4
[7] = 1st of 3 copper concentrations (value not shown), 4th of four biocide concentrations
[8] = 2nd of 3 copper concentrations (value not shown), 4th of four biocide concentrations
[9] = 3rd of 3 copper concentrations (value not shown), 4th of four biocide concentrations
[10] = Gold section of Table 5, first of three gold concentrations (μM, value not given), biocide concentration 4 of 4
[11] = Gold section of Table 5, second of three gold concentrations (μM, value not given), biocide concentration 4 of 4
[12] = Gold section of Table 5, third of three gold concentrations (μM, value not given), biocide concentration 4 of 4
[13] = Silver 0.5 μM, 4th of four biocide concentrations, E. coli
[14] = Silver 1.0 μM, 4th of four biocide concentrations, E. coli
[15] = Silver 5.0 μM, 4th of four biocide concentrations, E. coli
[16] = Silver 0.5 μM, 2nd of four biocide concentrations, E. coli
[17] = Silver 1.0 μM, 2nd of four biocide concentrations, E. coli
[18] = Silver 5.0 μM, 2nd of four biocide concentrations, E. coli
[19] = Copper (mM), 1st of 3 copper concentrations (head line not shown), biocide concentration 1 of 4, E. coli
[20] = Copper (mM), 1st of 3 copper concentrations (head line not shown), biocide concentration 2 of 4, E. coli
[21] = Copper (mM), 1st of 3 copper concentrations (head line not shown), biocide concentration 3 of 4, E. coli
[22] = Copper (mM), 2nd of 3 copper concentrations (head line not shown), biocide concentration 1 of 4, E. coli
[23] = Copper (mM), 2nd of 3 copper concentrations (head line not shown), biocide concentration 2 of 4, E. coli
[24] = Copper (mM), 2nd of 3 copper concentrations (head line not shown), biocide concentration 3 of 4, E. coli
[25] = Copper (mM), 3rd of 3 copper concentrations (head line not shown), biocide concentration 1 of 4, E. coli
[26] = Copper (mM), 3rd of 3 copper concentrations (head line not shown), biocide concentration 2 of 4, E. coli
[27] = Copper (mM), 3rd of 3 copper concentrations (head line not shown), biocide concentration 3 of 4, E. coli
[28] = Silver 0.5 μM, biocide concentration 1 of 4
[29] = Silver 0.5 μM, biocide concentration 2 of 4
[30] = Silver 0.5 μM, biocide concentration 3 of 4
[31] = Silver 1.0 μM, biocide concentration 1 of 4
[32] = Silver 1.0 μM, biocide concentration 2 of 4
[33] = Silver 1.0 μM, biocide concentration 3 of 4
[34] = Silver 5.0 μM, biocide concentration 1 of 4
[35] = Silver 5.0 μM, biocide concentration 2 of 4
[36] = Silver 5.0 μM, biocide concentration 3 of 4
[37] = Gold section of Table 5, second of three gold concentrations (μM, value not given), biocide concentration 3 of 4
[38] = Gold section of Table 5, third of three gold concentrations (μM, value not given), biocide concentration 3 of 4

## N#CC(C#N)=NNc1cccc(Cl)c1 [CCCP, Carbonyl cyanide m-chlorophenylhydrazone]
[1]
  CDI (coefficient of drug interaction): Tox
[2]
  CDI (coefficient of drug interaction): Tox
[3]
  CDI (coefficient of drug interaction): Tox
[4]
  CDI: Tox
[5]
  CDI: Tox
[6]
  CDI: Tox

## O=[N+]([O-])c1ccc(Cl)c([N+](=O)[O-])c1 [1-chloro-2,4-dinitrobenzene]
[7]
  CDI (coefficient of drug interaction), copper mixed with biocide: Tox
[8]
  CDI (coefficient of drug interaction), copper mixed with biocide: Tox
[9]
  CDI (coefficient of drug interaction), copper mixed with biocide: Tox

## CC(C)c1nc2nc(N)nc(N)c2nc1C(C)C [2,4-Diamino-6,7-diisopropylpteridine]
[7]
  CDI (coefficient of drug interaction), copper mixed with biocide: Tox
[8]
  CDI (coefficient of drug interaction), copper mixed with biocide: Tox
[9]
  CDI (coefficient of drug interaction), copper mixed with biocide: Tox
[10]
  CDI (coefficient of drug interaction): Tox
[11]
  CDI (coefficient of drug interaction): Tox
[12]
  CDI (coefficient of drug interaction): Tox
[13]
  CDI (coefficient of drug interaction), silver + biocide: Tox
[14]
  CDI (coefficient of drug interaction), silver + biocide: Tox
[15]
  CDI (coefficient of drug interaction), silver + biocide: Tox

## CCCCc1ccc(C(=O)O)nc1 [fusaric acid]
Copper 0.1 mM, biocide concentration 3 of 4
  CDI: Tox
Copper 0.1 mM, biocide concentration 4 of 4
  CDI: Tox
Copper 0.5 mM, biocide concentration 3 of 4
  CDI: Tox
Copper 0.5 mM, biocide concentration 4 of 4
  CDI: Tox
Copper 1.0 mM, biocide concentration 3 of 4
  CDI: Tox
Copper 1.0 mM, biocide concentration 4 of 4
  CDI: Tox
Gold 5 μM, biocide concentration 3 of 4, E. coli
  CDI (coefficient of drug interaction): Tox
Gold 5 μM, biocide concentration 4 of 4, E. coli
  CDI (coefficient of drug interaction): Tox
Gold 25 μM, biocide concentration 3 of 4, E. coli
  CDI (coefficient of drug interaction): Tox
Gold 25 μM, biocide concentration 4 of 4, E. coli
  CDI (coefficient of drug interaction): Tox
[16]
  CDI (coefficient of drug interaction), silver + biocide: Tox
Silver 0.5 μM, 3rd of four biocide concentrations, E. coli
  CDI (coefficient of drug interaction), silver + biocide: Tox
[13]
  CDI (coefficient of drug interaction), silver + biocide: Tox
[17]
  CDI (coefficient of drug interaction), silver + biocide: Tox
Silver 1.0 μM, 3rd of four biocide concentrations, E. coli
  CDI (coefficient of drug interaction), silver + biocide: Tox
[14]
  CDI (coefficient of drug interaction), silver + biocide: Tox
[18]
  CDI (coefficient of drug interaction), silver + biocide: Tox
Silver 5.0 μM, 3rd of four biocide concentrations, E. coli
  CDI (coefficient of drug interaction), silver + biocide: Tox
[15]
  CDI (coefficient of drug interaction), silver + biocide: Tox
[…], biocide concentration 3 of 4, E. coli
  CDI (coefficient of drug interaction): Tox
[…], biocide concentration 4 of 4, E. coli
  CDI (coefficient of drug interaction): Tox

## O=[N+]([O-])c1ccc(O)c([N+](=O)[O-])c1 [2,4-dintrophenol]
[19]
  CDI (coefficient of drug interaction): 0.87
[20]
  CDI (coefficient of drug interaction): 0.83
[21]
  CDI (coefficient of drug interaction): 1.10
[1]
  CDI (coefficient of drug interaction): Tox
[22]
  CDI (coefficient of drug interaction): 0.76
[23]
  CDI (coefficient of drug interaction): 0.64
[24]
  CDI (coefficient of drug interaction): 0.99
[2]
  CDI (coefficient of drug interaction): Tox
[25]
  CDI (coefficient of drug interaction): 0.50
[26]
  CDI (coefficient of drug interaction): 0.49
[27]
  CDI (coefficient of drug interaction): 1.14
[3]
  CDI (coefficient of drug interaction): Tox
First of 3 gold concentrations, biocide concentration 1 of 4
  CDI (coefficient of drug interaction), gold + biocide: 1.05
First of 3 gold concentrations, biocide concentration 2 of 4
  CDI (coefficient of drug interaction), gold + biocide: 1.02
First of 3 gold concentrations, biocide concentration 3 of 4
  CDI (coefficient of drug interaction), gold + biocide: 1.27
First of 3 gold concentrations, biocide concentration 4 of 4
  CDI (coefficient of drug interaction), gold + biocide: Tox
Second of 3 gold concentrations, biocide concentration 1 of 4
  CDI (coefficient of drug interaction), gold + biocide: 1.02
Second of 3 gold concentrations, biocide concentration 2 of 4
  CDI (coefficient of drug interaction), gold + biocide: 0.94
Second of 3 gold concentrations, biocide concentration 3 of 4
  CDI (coefficient of drug interaction), gold + biocide: 1.02
Second of 3 gold concentrations, biocide concentration 4 of 4
  CDI (coefficient of drug interaction), gold + biocide: Tox
Third of 3 gold concentrations, biocide concentration 1 of 4
  CDI (coefficient of drug interaction), gold + biocide: 0.85
Third of 3 gold concentrations, biocide concentration 2 of 4
  CDI (coefficient of drug interaction), gold + biocide: 0.74
Third of 3 gold concentrations, biocide concentration 3 of 4
  CDI (coefficient of drug interaction), gold + biocide: 0.61
Third of 3 gold concentrations, biocide concentration 4 of 4
  CDI (coefficient of drug interaction), gold + biocide: Tox
[28]
  CDI: 0.72
[29]
  CDI: 0.80
[30]
  CDI: 0.86
[4]
  CDI: Tox
[31]
  CDI: 0.91
[32]
  CDI: 0.83
[33]
  CDI: 1.02
[5]
  CDI: Tox
[34]
  CDI: 1.10
[35]
  CDI: 1.04
[36]
  CDI: 1.04
[6]
  CDI: Tox

## CN(CC[C@H](N)CC(=O)N[C@H]1C=C[C@H](n2ccc(N)nc2=O)O[C@@H]1C(=O)O)C(=N)N [blasticidin S]
[19]
  CDI (coefficient of drug interaction): 1.05
[20]
  CDI (coefficient of drug interaction): 1.14
[21]
  CDI (coefficient of drug interaction): 0.95
[1]
  CDI (coefficient of drug interaction): Tox
[22]
  CDI (coefficient of drug interaction): 0.90
[23]
  CDI (coefficient of drug interaction): 0.96
[24]
  CDI (coefficient of drug interaction): Tox
[2]
  CDI (coefficient of drug interaction): Tox
[25]
  CDI (coefficient of drug interaction): 0.71
[26]
  CDI (coefficient of drug interaction): 0.65
[27]
  CDI (coefficient of drug interaction): 0.49
[3]
  CDI (coefficient of drug interaction): Tox
Gold section of Table 5, first of three gold concentrations (μM, value not given), biocide concentration 1 of 4
  CDI (coefficient of drug interaction): 1.05
Gold section of Table 5, first of three gold concentrations (μM, value not given), biocide concentration 2 of 4
  CDI (coefficient of drug interaction): 0.95
Gold section of Table 5, first of three gold concentrations (μM, value not given), biocide concentration 3 of 4
  CDI (coefficient of drug interaction): 0.97
[10]
  CDI (coefficient of drug interaction): Tox
Gold section of Table 5, second of three gold concentrations (μM, value not given), biocide concentration 1 of 4
  CDI (coefficient of drug interaction): 1.06
Gold section of Table 5, second of three gold concentrations (μM, value not given), biocide concentration 2 of 4
  CDI (coefficient of drug interaction): 1.08
[37]
  CDI (coefficient of drug interaction): 1.11
[11]
  CDI (coefficient of drug interaction): Tox
Gold section of Table 5, third of three gold concentrations (μM, value not given), biocide concentration 1 of 4
  CDI (coefficient of drug interaction): 1.09
Gold section of Table 5, third of three gold concentrations (μM, value not given), biocide concentration 2 of 4
  CDI (coefficient of drug interaction): 1.06
[38]
  CDI (coefficient of drug interaction): 1.11
[12]
  CDI (coefficient of drug interaction): Tox
[28]
  CDI: 1.04
[29]
  CDI: 0.90
[30]
  CDI: 0.92
[4]
  CDI: Tox
[31]
  CDI: 1.01
[32]
  CDI: 1.02
[33]
  CDI: Tox
[5]
  CDI: Tox
[34]
  CDI: 1.52
[35]
  CDI: 1.40
[36]
  CDI: Tox
[6]
  CDI: Tox

## OC(CCN1CCCCC1)(c1ccccc1)c1ccccc1 [pridinol]
[7]
  CDI (coefficient of drug interaction), copper mixed with biocide: Tox
[8]
  CDI (coefficient of drug interaction), copper mixed with biocide: Tox
[9]
  CDI (coefficient of drug interaction), copper mixed with biocide: Tox
[10]
  CDI (coefficient of drug interaction): Tox
[37]
  CDI (coefficient of drug interaction): Tox
[11]
  CDI (coefficient of drug interaction): Tox
[38]
  CDI (coefficient of drug interaction): Tox
[12]
  CDI (coefficient of drug interaction): Tox
[16]
  CDI (coefficient of drug interaction), silver + biocide: Tox
[13]
  CDI (coefficient of drug interaction), silver + biocide: Tox
[17]
  CDI (coefficient of drug interaction), silver + biocide: Tox
[14]
  CDI (coefficient of drug interaction), silver + biocide: Tox
[18]
  CDI (coefficient of drug interaction), silver + biocide: Tox
[15]
  CDI (coefficient of drug interaction), silver + biocide: Tox
